What was measured:
IL-1β, IL-6 and TNF-α = IL-1β, IL-6 and TNF-α in the serum by ELISA kit; format: in vivo; conditions: chronic stress mice; sixth weekend
Protocol: (§1) The mice in Example 2 were euthanized at the sixth weekend. A fresh mouse spleen (about 50 mg) was taken, 5 mL of a pre-chilled PBS buffer was added, and the mouse spleen was cut, ground, and filtered with a 200-mesh nylon sieve to obtain a tissue cell suspension. 2 mL of an erythrocyte lysate was added for lysis for 4 min, and the lysate was removed by centrifugation at room temperature (300×g, 5 min). The obtained cell precipitate was washed with pre-cooled PBS twice, and resuspended with a certain amount of PBS to obtain a lymphocyte suspension. Antibody labeling of regulatory T cells (Tregs) was performed in accordance with the instructions of an eBioscience Mouse Regulatory T cell Staining Kit (Invitrogen Corporation, Carlsbad, CA, USA). The Tregs (CD4+CD25+Foxp3+) were detected by flow cytometry. The contents of IL-1β, IL-6 and TNF-α in the serum were detected with an ELISA kit.

[1] = tested on: regulatory T cells (Tregs); assay: Regulatory T cells (CD4+CD25+Foxp3+) in spleen by flow cytometry; format: in vivo; conditions: chronic stress mice; sixth weekend
Protocol: as §1

intestinal microbiome = assay: 16S rDNA sequencing of the intestinal microbiome from mouse feces; format: in vivo; conditions: depressed mice feces
Description: Fresh feces of the mice in Example 2 was taken at the sixth weekend, and total DNA was extracted from the mouse feces sample using an MP feces kit. Specific operation steps are as follows, mainly referring to the kit instructions. The mouse fecal genome was used as a template, V3-V4 fragments of 16S rDNA were amplified using a forward primer 520F (5′-AYTGGGYDTAAAGNG-3′) and a reverse primer 802R (5′-TACNVGGGTATCTAATCC-3′) as primers, and the length of a target fragment was about 247 bp. After the PCR reaction, all PCR samples in which target bands were observed were electrophoresed again, a 2.0% agarose gel was prepared, and electrophoresis was performed at 120 V for 40 min. […] The DNA concentration of the sample was measured according to a Qubit DNA3.0 kit, then a library was constructed according to a TurSeq DNA LT Sample Preparation Kit and instructions thereof, and finally determination was performed on an Illumina Miseq sequencer according to a MiSeq Regent Kit and instructions thereof. […] The sequences with the similarity greater than 97% were defined as a taxonomic unit (Operational Taxonomic Unit, OTU), and the species was determined by a Ribosomal Database Project (RDP) Naïve Bayesclassifier. The α-diversity and β-diversity of the sample were calculated to assess the bacterial diversity of the sample. […] The β-diversity was assessed by principal co-ordinates analysis (PCoA) (FIG. 9C). […]

depressed mice = assay: Elevated plus-maze test; format: in vivo, C57BL/6J mice; conditions: chronic unpredictable mild stress mice; gavage; activities within 10 min
Protocol: 32 6-week-old male C57BL/6J mice were selected. After one week of adaptation to the environment, the mice were randomly divided into four groups according to body weight: a normal control group, a depression model group, a drug intervention group, and a CCFM6432 intervention group, each containing 8 mice.
Chronic unpredictable stress depression mouse model: 1-2 kinds of stimuli were randomly performed every day, and the performance time of stimuli every day was determined randomly to avoid the circadian rhythm. Each method was used for not more than three times, and the stimuli were performed for five weeks. The stimuli include: (1) fasting for 24 h; (2) water deprivation+empty bottle stimulus for 24 h; (3) tail pinching for 3 min; (4) wet padding for 24 h; (5) immobilization for 1-2 h; (6) 45° tilted cage for 24 h; (7) continuous lighting for 24 h; (8) no padding for 24 h; (9) forced swim for 15 min; and (10) separation for 24 h. […]
At the beginning of the test, a mouse was placed into a maze from the central grid facing a closed arm, and its activities within 10 min were recorded. […] The proportion of time spent in the open arms, the proportion of entries in the open arms, and the total number of entries in the elevated plus maze were calculated. […]

CNCCC(Oc1ccc(C(F)(F)F)cc1)c1ccccc1 (stereo not shown) [Fluoxetine, fluoxetine]
degree of inflammation (IL-1β, IL-6 and TNF-α in the serum) (IL-1β, IL-6 and TNF-α): reduce the degree of inflammation | immune state (proportion of Tregs in the spleen) [1]: could significantly improve the immune state | structure of the intestinal microbiome (β-diversity, PCoA) (intestinal microbiome): could normalize the structure of the intestinal microbiome | entries and time spent in the open arms (depressed mice): had no effect
